Key:
G12C variant of KRAS = G12C variant of KRAS (Homo sapiens, UniProt P01116, G12C); conditions: Patricelli et al., 2016, Lito et al.; cited from earlier work
H358 cells (KRAS G12C) [1] = experiment: Assay of cell viability with two drugs (ARS-853 + ptRNase), H358; type: cell-based, human; conditions: 5×5 matrix, CI (FIG. 4C)
Description: (§1) The EC50 values obtained from single-drug cell viability assays were used to design subsequent drug combination experiments. Two-drug combination experiments were performed by using a 5×5 matrix in 96-well plates to interrogate 25 dosing pairs. Cells in complete growth medium were plated at 5,000 cells per well in a 96-well microplate, which was incubated for 24 h at 37° C. […] After 48 h, cell viability was evaluated as described above.
(§2) The dose-effect curve for each drug was determined based on experimental observations and was compared to the effect afforded by the two-drug combination to derive a CI value. The CI values for all combinations were calculated using CalcuSyn 2.0 from Biosoft (Cambridge, UK). […] Each CI value was the mean of the results from 3 biological replicates.

[2] = tested on: human A549 lung cancer cells; experiment: Assay of cell viability with two drugs (kinase inhibitor + ptRNase), A549; type: cell-based; conditions: for Synergism with ptRNase?: A549 cells, two-drug combination with ptRNase
Description: We measured cell viability with a tetrazolium dye-based assay for metabolic activity.
We used the EC50 values obtained from single-drug treatment (Table 1) to design subsequent drug combination experiments. Two-drug combination experiments were performed using a 5×5 matrix to interrogate 25 concentration ratios per combination.
as §1, §2

[3] = tested on: human lung cancer cells (A549); experiment: Assay of cell viability with a single drug (tetrazolium dye-based MTS assay), A549; conditions: single agent, 48 h, value ± SE, n = 3
Description: To test this hypothesis, we treated human lung cancer cells for 48 h with trametinib or with three other kinase inhibitors: PD 0332991 (which is a CDK4/CDK6 inhibitor), bosutinib (which is a Src family kinase inhibitor), or crizotinib (which is an ALK inhibitor) (Boschelli et al., 2001; Fry et al., 2004; Zou et al., 2007). We measured cell viability with a tetrazolium dye-based assay for metabolic activity. The ensuing EC50 values are listed in a Table 1 and in the table in FIG. 10.
(§3) Cells in complete growth medium were plated at 5,000 cells per well in a 96-well microplate, which was incubated for 24 h. […] After 48 h, the medium was removed, and cells were incubated for 2 h with CellTiter 96® MTS reagent from Promega. Absorbance was recorded on an M1000 fluorimeter from Tecan (Morrisville, NC) at 490 nm. Data were analyzed with Prism 5.0 software from GraphPad (La Jolla, CA). Values of EC50, which is the concentration of a drug that gives half-maximal cell viability, were calculated with the equation: […]
(§4) where y is cell viability, x is the concentration of drug, and h is the Hill coefficient. Data were plotted on a log scale with each data point being the mean of 3 biological replicates.

[4] = tested on: phosphorylation of MEK, ERK, RSK and RI in SK-MEL-28 cells; experiment: Immunoblotting and pull-down of biotinylated RI after kinase inhibitor treatment; type: cell-based, human; conditions: for phosphorylation of MEK / phosphorylation of ERK and RSK: SK-MEL-28, 24 h; for phosphorylation of MEK: bosutinib 5 μM, crizotinib 2 μM, PD 0332991 2 μM, selumetinib 10 nM, dabrafenib 10 nM, trametinib 1 nM; for phosphorylation of ERK and RSK: same inhibitor concentrations as FIG. 6; for phosphorylation of RI (α-pSer, α-pThr): biotinylated RI captured from SK-MEL-28 cells, 24 h inhibitor treatment
Description: FIGS. 6A-6B are immunoblots showing that inhibition of the ERK pathway prevents the phosphorylation of RI in SK-MEL-28 cells. Cells transfected to produce biotinylated RI were treated with bosutinib (5 μM), crizotinib (2 μM), PD 0332991 (2 μM), selumetinib (10 nM), dabrafenib (10 nM), or trametinib (1 nM) for 24 h. (A) Treatment with inhibitors of non-ERK pathway kinases has no effect on the phosphorylation of MEK, ERK, or RSK in cell lysates. Treatment with dabrafenib reduces the phosphorylation of MEK (α-pMEK ½ lane) as well as that of ERK and RSK (α-pERK ½, and α-pRSK lanes). Treatment with selumetinib and trametinib reduces the phosphorylation of ERK and RSK. (B) Treatment with inhibitors of non-ERK pathway kinases has no effect on phosphorylation of biotinylated RI, which was captured by using streptavidin-coated magnetic beads. Inhibition of ERK-pathway kinases diminishes phosphorylation of RI (α-pThr, and α-pSer lanes).
The inventors further confirmed the apparent effect of kinase inhibitors on RI phosphorylation by immunoblotting. Biotinylated RI was isolated by using streptavidin-coated magnetic beads from SK-MEL-28 cells after transient transfection for 48 h. To detect phosphorylated species, we used α-pSer or α-pThr. […] These biochemical data provide direct evidence that kinases in the ERK pathway are indeed responsible for phosphorylating RI, in agreement with the observed synergism.
Cells grown in a 10-cm dish were lysed with 1 mL of M-PER™ Mammalian Protein Extraction Reagent (a mammalian protein extraction reagent that contains a mild, nondenaturing detergent) containing PIERCE™ Protease Inhibitor Tablets (tablets containing protease inhibitors AEBSF, aprotinin, bestatin, E-64, leupeptin, and pepstatin A), PIERCE™ Phosphatase Inhibitor Tablets (sodium fluoride, sodium orthovanadate, sodium pyrophosphate, and beta-glycerophosphate for broad-spectrum inhibition of phosphatase activity), and DTT (1 mM). Cell lysates were subjected to centrifugation for 10 min at 14,000 g to remove cell debris, and the total protein concentration in the supernatant was determined with a Bradford protein assay. Protein (˜30 μg) was separated by SDS-PAGE using a gel from Biorad (Hercules, CA), and the resulting gel was subjected to transfer to a PVDF membrane with an IBLOT® 2 (a dry transfer device that performs western blotting transfer without the need for liquid buffers) dry transfer system. The membrane was blocked for 1 h in a solution of BSA (5% w/v) in TBS-Tween (TBS-T), washed, and then incubated overnight at 4° C. with an antibody (1:500 dilution) in TBS-T containing BSA (5% w/v). After another wash with TBS-T, membranes were incubated with secondary antibody (1:3000 dilution), washed again, and then detected with an Amersham ECL Select Western Blotting Detection Reagent and by an ImageQuant™ LAS4000 instrument from GE Healthcare (Marlborough, MA).
For pull-down assays, after isolation of the total protein, samples were incubated overnight at 4° C. with Streptavidin […]® (magnetic particles coated with streptavidin) Paramagnetic Particles from Promega. The beads were washed (3×) with PBS containing 1 mM DTT. Samples were eluted with 50 μL of SDS gel-loading dye and processed further for immunoblotting.

V600E/K variants of BRAF = conditions: Kefford et al., 2010; King et al., 2013; cited from earlier work
[5] = tested on: human melanoma cells (SK-MEL-28, A375, Malme-3M); experiment: Assay of cell viability with two drugs, melanoma cell lines; type: cell-based; conditions: across three melanoma cell lines (FIG. 5)
Description: None of the agents were toxic to normal skin fibroblasts at the tested doses (FIG. 10).
as §1, §2

H358 cells (KRAS G12C) [6] = experiment: Assay of cell viability with a single drug (MTS assay), H358; type: cell-based, human
Description: as §3, §4

G12C variant of KRAS, sequence (P01116 1-188 isoform P01116-2 G12C): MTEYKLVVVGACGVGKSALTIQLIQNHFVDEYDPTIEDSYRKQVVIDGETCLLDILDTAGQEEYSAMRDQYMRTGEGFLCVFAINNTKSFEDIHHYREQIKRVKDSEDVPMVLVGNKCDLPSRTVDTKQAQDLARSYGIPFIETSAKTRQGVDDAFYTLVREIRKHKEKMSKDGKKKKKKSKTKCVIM

EC50 ([3]; Homo sapiens) [µM]	Molecule	Synergism with ptRNase? [2]	phosphorylation of MEK [4]	phosphorylation of ERK and RSK [4]	phosphorylation of RI (α-pSer, α-pThr) [4]	other results
	C=CC(=O)N1CC(N2CCN(C(=O)CNc3cc(C4(C)CC4)c(Cl)cc3O)CC2)C1 [ARS-853]	Yes				cellular inhibitory activity against the G12C variant of KRAS (G12C variant of KRAS): robust cellular inhibitory activity; effect of combination with the ptRNase (H358 cells (KRAS G12C) [1]): enhanced the efficacy of both agents; synergy with the ptRNase judged by combination index (CI) ([2]; A549, 5×5 concentration matrix, kinase inhibitor 1 h then ptRNase, 48 h): additive effect; EC50 [3]: 74 ± 8 µM
0.73 ± 0.06	COc1cc(Nc2c(C#N)cnc3cc(OCCCN4CCN(C)CC4)c(OC)cc23)c(Cl)cc1Cl [Bosutinib]					
0.11 ± 0.02	C[C@@H](Oc1cc(-c2cnn(C3CCNCC3)c2)cnc1N)c1c(Cl)ccc(F)c1Cl [Crizetinib]		insignificant effects	insignificant effects	Strong bands for phosphorylated RI	
0.24 ± 0.04	CC(=O)c1c(C)c2cnc(Nc3ccc(N4CCNCC4)cn3)nc2n(C2CCCC2)c1=O [PD 0332991]	No	insignificant effects	insignificant effects	Strong bands for phosphorylated RI	
43 ± 5	Cn1cnc2c(F)c(Nc3ccc(Br)cc3Cl)c(C(=O)NOCCO)cc21 [Selumetinib]					
5.7 ± 0.6	CC(=O)Nc1cccc(-n2c(=O)n(C3CC3)c(=O)c3c(Nc4ccc(I)cc4F)n(C)c(=O)c(C)c32)c1 [Trametinib]					
	R4C/G38R/R39G/N67R/G89R/S90R/V118C RNase 1 (protein, UniProt P07998 29-156, looked up, variant R4C G38R R39G N67R G89R S90R V118C, gift from Quintessence Biosciences) Ribonuclease pancreatic: KESCAKKFQRQHMDSDSSPSSSSTYCNQMMRRRNMTQRGCKPVNTFVHEPLVDVQNVCFQEKVTCKRGQGNCYKSNSSMHITDCRLTNRRRYPNCAYRTSPKERHIIVACEGSPYVPCHFDASVEDST					EC50 (H358 cells (KRAS G12C) [6]; H358 cells (KRAS G12C), single agent, mean ± SEM, n = 3): 3.6 ± 0.6 µM; cytotoxicity to H358 cells compared to A549 cells (H358 cells (KRAS G12C) [6]; H358 versus A549): 20 fold; EC50 [3]: 62 ± 7 µM

Molecule	EC50 ([3]; Homo sapiens) [µM]	Synergism with ptRNase? [2]	phosphorylation of MEK [4]	phosphorylation of ERK and RSK [4]	phosphorylation of RI (α-pSer, α-pThr) [4]	other results
CC(C)(C)c1nc(-c2cccc(NS(=O)(=O)c3c(F)cccc3F)c2F)c(-c2ccnc(N)n2)s1 [Dabrafenib]	40 ± 5	Yes	only a weak band of phosphorylated MEK	no detectable phosphorylation	no detectable phosphorylation	inhibitory activity against the V600E/K variants of BRAF (V600E/K variants of BRAF): robust inhibitory activity; effect of combination with trametinib (without ptRNase) [5]: additive effect; synergy of combination with the ptRNase [5]: strong synergy

Reference: US12195771B2, “Combination chemotherapy for the treatment of cancer” (WISCONSIN ALUMNI RESEARCH FOUNDATION, priority 2017, dated 2025)
